Columns and labels:
[1] = test system: HIV-1 latent virus in PBMC cells of patient; assay: Activation of latent HIV in PBMC from patient under anti-retroviral treatment (semi-nested real time PCR of intracellular vRNA); assay type: cell-based; settings: 72 hours
Description: It was tested, in this experiment, the ability of ingenol derivative, of formula I, wherein Z=Z2, mentioned as B, of activating latent cells from patients who were already under anti-retroviral treatment for more than 1 year with undetectable viral load. A patient (identified as MLV) was selected, which had already been under treatment with zidovudine+lamivudine (AZT+3TC) and efavirenz for over 14 months, with undetectable viral load and CD4>500 cells/mm^3. 20 mL of blood was collected from the patient in a EDTA (ethylene diamine tetra acetic acid) tube and PBMC cells were isolated, which were placed in RPMI culture medium with 10% fetal bovine serum and 50 IU/mL of IL2 (interleukin 2), and grown in 2 bottles with 5 mL of identical cells (106/mL) with different selective compositions. 10 μM efavirenz (antiviral) was added to the control bottle to block viral replication that would eventually arise from cultured cells. In another test bottle both efavirenz (10 μM) and the B derivative of the invention (1 μM) were included. […]

[2] = test system: CD4 HIV-1 receptor; assay: Downregulation of CD4 receptor on human lymphocytes and monocytes/macrophages (flow cytometry); assay type: cell-based; settings: summary statement for lymphocytes and monocytes/macrophages (human and monkey cells tested)
Excerpt: It is verified in this test that ingenol derivatives of formula 1, when Z=Z2, at concentrations that activate HIV from latency in Jlat cells in example 3, downregulate the expression of CD4 cell receptor on the surface of HIV-human and SIV-pig-tail monkey CD4+T lymphocytes and macrophages. For this experiment PBMC cells from human and monkeys were isolated from peripheral blood with isolation through Ficoll-Hypaque density gradient (mixture of high density hydrophilic neutral polysaccharides that readily dissolves in aqueous solution. “Ficoll” is a trademark of GE Healthcare Bio-Sciences, USA). Thus, PBMC cells from human and monkeys, at concentration of 10^6 cells/mL, were cultured in RPMI medium with 10% fetal bovine serum for 24 hours and adhered cells (monocytes differentiating into macrophages) were separated from the cell supernatant which contained total lymphocytes. Those two distinct populations of cells were exposed to different concentrations of A, B and C derivatives of the invention, and left in culture for 72 hours. After exposure, the cells were stained with specific lymphocyte monoclonals (anti-CD3) and monocytes/macrophages (anti-CD14) simultaneously with an anti-CD4. Thus, the cells were centrifuged at 1000 G for 3 minutes and washed with the same PBS volume (without Ca^2+ and Mg^2+, Cat. No. 9240, Irvine Scientific, USA) containing 2% fetal bovine serum. This wash was repeated 3 times and the cells were suspended in 1×PBS containing a 1/1000 dilution of relevant antibodies and left to incubate for 30 min at 4° C. until being read in flow cytometry. After incubation, 30,000 cells were read in a BD-Excalibur flow cytometer (from Beckton Dickinson and co., USA) and the populations were separated and the CD4 receptor density was estimated at different concentrations of the B derivative, assuming cell density without B derivative as 100%. […]

Row | Structure (SMILES) | intracellular HIV-1 vRNA ([1]; 10 μM efavirenz alone (control bottle), FIG. 7) | downregulation of the main HIV receptor (CD4) on the surface of infection targeted cells [2] | intracellular HIV-1 vRNA ([1]; 1 μM B derivative plus 10 μm efavirenz, FIG. 8)
1 | O=C1Nc2ccc(Cl)cc2[C@@](C#CC2CC2)(C(F)(F)F)O1 [efavirenz, reference compound] | did not produce intracellular vRNA | – | –
2 | CC1=CC23C(=O)C(C=C(CO)C(O)C2(O)C1OC(=O)/C=C/c1ccccc1)C1C(CC3C)C1(C)C (centres unmarked) [A, Ingenol 3-cinnamate] | – | able to downregulate | –
3 | CCCCCCCCCCCC(=O)OC1C(C)=CC23C(=O)C(C=C(CO)C(O)C12O)C1C(CC3C)C1(C)C (centres unmarked) [C, ingenol 3-dodecanoate] | – | able to downregulate | –
4 | CCCCCC(=O)OC1C(C)=CC23C(=O)C(C=C(CO)C(O)C12O)C1C(CC3C)C1(C)C (centres unmarked) [B, Ingenol 3-caproate] | – | able to downregulate | emergence of intracellular HIV-1 vRNA

Source: patent US10105339B2, “Ingenol derivatives in the reactivation of latent HIV” (priority 2012, dated 2018)
